Measurements as given in PMC8219695 (Nature Communications, 2021).
Values joined by “and” are separate entries in the source; they are usually repeats but may differ in a detail not shown here. Equal values may be shown once.

Tests used:
hKOR = hKOR (Homo sapiens, UniProt P41145); test: CAMYEL BRET cAMP agonist assay at hKOR; type: cell-based; settings: individual replicates, Supplementary Figure 8A source data
hDOR = hDOR (Homo sapiens, UniProt P41143); test: CAMYEL BRET cAMP agonist assay at hDOR; type: cell-based; settings: for Agonist activity of 7OH analogs at hDOR: single replicate values, Supplementary Figure 7A
mKOR = target: T1, mKOR (Mus musculus, UniProt P33534); test: [125I]BNtxA radioligand competition binding, mouse KOR; settings: mean ± SEM, n = 3; [125I]BNtxA; read-out: Ki ± SEM mKOR
T1 construct: expressed in transfected cells; membranes

mMOR [1] = target: T2, mMOR (Mus musculus, UniProt P42866); test: CAMYEL BRET antagonism assay at mMOR (inhibition of DAMGO); type: cell-based; settings: for Antagonist activity at mMOR, raw signal (single replicate values): source data of Fig 8a and Table 5, listed as C11-F-7OH (22);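 as to Antagonist activity at mMOR, raw signal (single replicate values): BRET signal rises as cAMP falls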
T2 construct: signal peptide (heterologous, not specified) (N); expressed in transfected cells; pcDNA3.1(+) construct made in house

mMOR [2] = target: T2, mMOR; test: [125I]BNtxA radioligand competition binding, mouse MOR; settings: mean ± SEM, n = 3; [125I]BNtxA; read-out: Ki ± SEM mMOR
hMOR = target: T3, hMOR (Homo sapiens, UniProt P35372); test: cell-based
T3 construct: expressed in transfected cells; plasmid a gift from Dr. Nevin Lambert

mDOR = target: T4, mDOR (Mus musculus, UniProt P32300); test: CAMYEL BRET cAMP agonist assay at mDOR; type: cell-based; settings: for Agonist activity of 7OH analogs at mDOR: single replicate values, Supplementary Figure 7B
T4 construct: expressed in transfected cells

CD1 mice = test: Tail-flick antinociception in CD1 mice; type: in vivo, mouse; settings: for Tail flick (%MPE), average / Tail flick latency in secs, Av: average of 11 animals
[3] = 5 mg/kg, sc, 15 min, individual animals

CC[C@@H]1CN2CC[C@@]3(O)C(=Nc4cc(F)cc(OC)c43)[C@@H]2C[C@@H]1/C(=C\OC)C(=O)OC [11-F-7OH (22), 11-Fluoro-7-hydroxymitragynine]
Agonist activity of 7OH analogs at hKOR (hKOR; Log [drug](M) -5): 12.7288 and 7.6957 and 5.691 and 5.203 and 10.1397 and 6.346 and 11.5584 and 16.2136 and 8.114 | Agonist activity of 7OH analogs at hKOR (hKOR; Log [drug](M) -6): 4.1678 and -6.234 and -2.623 and -0.4626 and 5.449 and 14.973 and 13.878 and 7.062 and 8.9598 | Agonist activity of 7OH analogs at hKOR (hKOR; Log [drug](M) -7): 15.7968 and 0.7988 and 22.403 and -2.445 and 4.302 and 10.7854 and 12.9808 and 8.955 and 17.6223 | Agonist activity of 7OH analogs at hKOR (hKOR; Log [drug](M) -8): 4.851 and -3.884 and -5.474 and 6.013 and -0.3123 and 2.012 and 9.524 and 10.5291 and 12.8743 | Agonist activity of 7OH analogs at hKOR (hKOR; Log [drug](M) -9): -6.272 and 9.969 and -14.9547 and 3.87 and -4.029 and 4.071 and 2.29 and -8.644 and 9.488 | Agonist activity of 7OH analogs at hKOR (hKOR; Log [drug](M) -10): -8.62 and -13.3054 and -5.371 and -6.566 and 5.6803 and 0.6674 and -0.4006 and -4.716 and 0.9825 | Agonist activity of 7OH analogs at hKOR (hKOR; Log [drug](M) -11): -18.0186 and -16.1556 and -9.7654 and -4.481 and 6.079 and -3.726 and -2.3334 and -2.856 and -4.795 | Agonist activity of 7OH analogs at hKOR (hKOR; Log [drug](M) -13): 2.027 and -5.796 and 3.769 and 2.62 and 6.896 and -9.516 and -3.456 and 3.959 and -0.5033 | Agonist activity of 7OH analogs at hDOR (hDOR; Log[drug] (M) -5): 35.2154 and 37.8271 and 20.1668 and 20.0459 and 27.5701 and 32.2497 and 21.4666 and 22.179 and 20.5682 | Agonist activity of 7OH analogs at hDOR (hDOR; Log[drug] (M) -6): 34.2535 and 17.385 and 29.3707 and 32.2245 and 19.3851 and 24.4275 and 22.3041 and 14.4734 and 13.6453 | Agonist activity of 7OH analogs at hDOR (hDOR; Log[drug] (M) -7): 30.3483 and 21.8663 and 22.0325 and 12.2379 and 10.9328 and 13.3432 and 3.216 and 7.058 and 2.651 | Agonist activity of 7OH analogs at hDOR (hDOR; Log[drug] (M) -8): 2.89 and -16.6078 and 13.7181 and 1.455 and 8.915 and -8.089 and -4.58 and 2.715 and 18.3397 | Agonist activity of 7OH analogs at hDOR (hDOR; Log[drug] (M) -9): 8.34 and 5.8475 and -3.905 and -8.29 and 12.1949 and 6.438 and 2.013 and 5.417 | Agonist activity of 7OH analogs at hDOR (hDOR; Log[drug] (M) -10): 4.091 and -4.63 and 8.526 and 11.2871 and -1.147 and 9.891 and 2.3909 and 3.977 and 19.4184 | Agonist activity of 7OH analogs at hDOR (hDOR; Log[drug] (M) -11): -7.5527 and 10.3457 and 6.839 and 6.552 and 7.529 and 1.024 and 18.8483 and 4.15 and -0.7846 | Agonist activity of 7OH analogs at hDOR (hDOR; Log[drug] (M) -13): -0.5197 and 3.103 and 0.8755 and 5.994 and 5.535 and -9.529 and 9.805 and -0.2765 | EC50 (hDOR; hDOR cAMP BRET, read-out: EC50): 151 nM | Emax (hDOR; read-out: Emax): 26% | Ki (mKOR): 21 ± 3.2 nM | IC50 (mMOR [1]): 260 nM | Antagonist activity at mMOR, raw signal (single replicate values) (mMOR [1]; Log[drug] (M) -5): 0.03322 and 0.03306 and 0.04505 and 0.03409 and 0.04171 and 0.03584 and 0.0591 and 0.05619 and 0.05325 | Antagonist activity at mMOR, raw signal (single replicate values) (mMOR [1]; Log[drug] (M) -6): 0.06086 and 0.0551 and 0.06302 and 0.07276 and 0.06512 and 0.0766 and 0.06642 and 0.06116 and 0.08827 | Antagonist activity at mMOR, raw signal (single replicate values) (mMOR [1]; Log[drug] (M) -7): 0.1571 and 0.1681 and 0.1534 and 0.1529 and 0.1704 and 0.1581 and 0.1507 and 0.1426 and 0.1477 | Antagonist activity at mMOR, raw signal (single replicate values) (mMOR [1]; Log[drug] (M) -8): 0.2123 and 0.2016 and 0.2091 and 0.1893 and 0.2024 and 0.2047 and 0.1631 and 0.1656 and 0.156 | Antagonist activity at mMOR, raw signal (single replicate values) (mMOR [1]; Log[drug] (M) -9): 0.2046 and 0.2165 and 0.2136 and 0.191 and 0.2101 and 0.1873 and 0.1659 and 0.1752 and 0.1707 | Antagonist activity at mMOR, raw signal (single replicate values) (mMOR [1]; Log[drug] (M) -10): 0.2086 and 0.2076 and 0.2154 and 0.2091 and 0.201 and 0.211 and 0.1814 and 0.1819 and 0.178 | Antagonist activity at mMOR, raw signal (single replicate values) (mMOR [1]; Log[drug] (M) -11): 0.2091 and 0.1929 and 0.2264 and 0.2001 and 0.2059 and 0.2094 and 0.1761 and 0.1779 and 0.1909 | Ki (mMOR [2]): 13.7 ± 1 nM | IC50 (hMOR): 590 nM | Agonist activity of 7OH analogs at mDOR (mDOR; Log[drug] (M) -5): 47.1654 and 47.1068 and 50.635 and 37.9412 and 42.0474 and 46.3733 and 28.2147 and 32.1025 and 39.5821 | Agonist activity of 7OH analogs at mDOR (mDOR; Log[drug] (M) -6): 47.099 and 41.9872 and 38.3786 and 51.107 and 48.5979 and 35.3577 and 31.3142 and 12.8186 and 22.449 | Agonist activity of 7OH analogs at mDOR (mDOR; Log[drug] (M) -7): 30.1688 and 32.9372 and 28.2956 and 32.0377 and 31.8373 and 22.4143 and 6.1677 and 13.5479 and 12.0733 | Agonist activity of 7OH analogs at mDOR (mDOR; Log[drug] (M) -8): 13.6765 and -5.445 and -5.108 and 13.4452 and 4.719 and 1.33 and -3.9215 and 5.792 | Agonist activity of 7OH analogs at mDOR (mDOR; Log[drug] (M) -9): -4.727 and 10.4426 and 11.2028 and 10.7963 and -1.115 and -6.036 and 3.188 and 1.136 and -3.325 | Agonist activity of 7OH analogs at mDOR (mDOR; Log[drug] (M) -10): -4.225 and 3.531 and 0.6939 and 1.589 and -3.887 and 2.298 and 4.3674 and 7.155 and 10.722 | Agonist activity of 7OH analogs at mDOR (mDOR; Log[drug] (M) -11): 12.0117 and 1.607 and 13.3008 and 5.9086 and 13.4698 and 3.259 and 9.679 and 6.216 and 9.4253 | Agonist activity of 7OH analogs at mDOR (mDOR; Log[drug] (M) -13): -0.8332 and 15.6965 and -5.824 and 1.284 and 2.644 and 6.574 and -5.56 and 1.8034 and 3.757 | EC50 (mDOR; mDOR cAMP BRET, read-out: EC50): 102 nM | Emax (mDOR; read-out: Emax): 41% | duration of residual analgesic effect (CD1 mice; 5 mg/kg s.c., CD1 mice): at least 120 min | time of peak analgesic effect post injection (CD1 mice; 5 mg/kg s.c., CD1 mice): 15 min | partial analgesic efficacy (CD1 mice; 5 mg/kg s.c., CD1 mice, tail-flick): < 40 % MPE | Tail flick (%MPE), average (CD1 mice; 5 mg/kg, sc, 15 min): 38 %MPE | Tail flick latency in secs, Av (CD1 mice; 5 mg/kg, sc, 15 min): 5.1 s | Tail flick (%MPE) (CD1 mice; [3]): 53 %MPE and 57 %MPE and 20 %MPE and 21 %MPE and 30 %MPE (2×) and 35 %MPE and 62 %MPE and 25 %MPE and 54 %MPE and 27 %MPE | Tail flick latency (CD1 mice; [3]): 6.3 secs and 6.7 secs and 3.5 secs and 4.2 secs (2×) and 4.9 secs (2×) and 4.3 secs and 7.0 secs and 4.0 secs and 6.6 secs | Tail flick (%MPE), average (CD1 mice; 5 mg/kg, sc, 30 min): 32 %MPE | Tail flick latency in secs, Av (CD1 mice; 5 mg/kg, sc, 30 min): 4.7 s
